Source: publication PMC8703873, “Structure and Activity of a Selective Antibiofilm Peptide SK-24 Derived from the NMR Structure of Human Cathelicidin LL-37” (Pharmaceuticals, 2021)
Values after ≈ are worked out from the molar mass of the structure shown. Non-standard residues stand in square brackets, D forms with d. Residues, ends and D or L forms follow the SMILES beside them. Bip = N[C@@H](Cc1ccc(-c2ccccc2)cc1)C(=O)O

How the values were obtained:
E. faecium V284-17 = type: cell-based, Enterococcus faecium; details: V284-17
A. baumannii B28-16 = type: cell-based, Acinetobacter baumannii
Experimental: (§1) The antibiotic-resistant pathogens used in this study include the Gram-positive bacteria Enterococcus faecium V286-17 and Staphylococcus aureus USA300 LAC and the Gram-negative bacteria Klebsiella pneumoniae E406-17, Acinetobacter baumannii B28-16, Pseudomonas aeruginosa E411-17, and Escherichia coli E423-17. All bacteria were cultivated in tryptic soy broth (TSB) at 37 °C, 220 rpm.
(§2) The antibacterial activity of peptides was evaluated using a standard broth microdilution protocol with minor modifications. In brief, peptides were made at various concentrations, 10 μL per well in a 96-well polystyrene microplate. Logarithmic phase bacterial cultures (i.e., optical density (OD) at 600 nm ≈ 0.5) were diluted to 0.001 OD, and aliquots of 90 μL were added to each well. Untreated bacterial culture and medium were included as positive and negative controls, respectively. Plates were incubated at 37 °C overnight and read at 630 nm using a ChroMate Microplate Reader (Awareness Technology, Palm City, FL, USA). […] Our previously designed peptide 17BIPHE2 [32] was included as a positive control, and RI-10, a peptide without antibacterial activity in rich media, was utilized as a negative control.

[1] = system: A. baumannii B28-16 preformed biofilms; experiment: Disruption of preformed biofilms (XTT); type: cell-based, Acinetobacter baumannii
Experimental: The antibiofilm activities of peptides against the preformed biofilms of A. baumannii B28-16 and S. aureus USA300 LAC were evaluated as follows. Bacteria in the logarithmic growth phase were adjusted to a cell density of 10^5 colony forming unit (CFU)/mL. Two hundred microliter cells were seeded into each well of the 96-well plates. The plates were incubated at 37 °C to allow for the formation of biofilm for 24, 48, and 72 h, respectively. The planktonic cells were then removed, followed by a wash. The biofilms were then treated with 20 µL of 10× two-fold diluted peptides and 180 µL of fresh TSB media for 24 h at 37 °C. Cultures treated with water without peptide served as the positive control, and media treated with water was used as the negative control. To quantify the antibiofilm activity of the peptides, the XTT [2, 3-bis (2-methyloxy-4-nitro-5-sulfophenyl)-2H-tertazolium-5-carboxanilide] assay staining method was used to quantitate the live cells. Absorbance was read at 450 nm using a ChroMate microliter plate reader. The percentage biofilm growth for the peptide was plotted by assuming 100% biofilm growth in untreated bacterial control wells. Data were represented as mean ± standard deviation (SD). The data are statistically significant at p < 0.05. Plots were generated using GraphPad Prism v7 (GraphPad Software, San Diego, CA, USA).

S. aureus USA300 LAC [2] = experiment: Membrane permeabilization (propidium iodide); type: cell-based, Staphylococcus aureus; details: peptide 8 µM; propidium iodide fluorescence, 2 h, PBS, 37 °C
Experimental: Membrane permeabilization was evaluated as described. In brief, bacteria were inoculated and grown overnight. A second inoculation was made and let bacteria grow to the exponential phase. Bacteria were then spun, washed, and resuspended in the same volume of PBS. A series of peptide solutions (10×) was made via two-fold dilution in a 96-well plate (10 µL each). All wells were aliquoted with 2 µL of propidium iodide (20 µM), followed by adding 88 µL of S. aureus USA300 or A. baumannii B28-16 (OD600 ~0.11 in PBS). The plate was incubated at 37 °C with continuous shaking at 100 rpm in a FLUOstar Omega microplate reader (BMG Labtech Inc., Cary, NC, USA). Fluorescence was recorded every 5 min for 2 h with excitation and emission wavelengths of 485 and 620 nm. The data were analyzed by the vendor’s software using averaged values from duplicated experiments.

P. aeruginosa E411-17 = type: cell-based, Pseudomonas aeruginosa; details: E411-17
Experimental: as §1, §2

S. aureus USA300 LAC [3] = experiment: Membrane depolarization (DiBAC4(3)); type: cell-based, Staphylococcus aureus; details: peptide 8 µM; similar trends at 16 and 32 µM; DiBAC4(3) fluorescence
Experimental: The experiment was conducted as described. In brief, an overnight culture of S. aureus USA300 LAC was subcultured in a fresh TSB medium and grown to the exponential phase. Cells were spun using centrifugation and washed twice with PBS, and resuspended in twice the volume of PBS containing 25 mM glucose and incubated at 37 °C for 15 min. For membrane depolarization measurements, 500 nM (final concentration) of the dye DiBAC4 (3) (bis-(1,3- dibutylbarbituric acid) trimethine oxonol) (AnaSpec, San Jose, CA, USA) was added and vortexed gently. Aliquots of 90 μL of the energized bacteria solution were loaded to the wells, and the plate was fed into a FLUOstar Omega microplate reader. Fluorescence was read for 20 min at excitation and emission wavelengths of 485 and 520 nm, respectively, to get dye normalization. Then 10 μL of diluted peptide solutions were added and gently mixed. Fluorescence readings were recorded for 40 min, where Triton X-100 (0.1%) was used as a positive control.

[4] = HPLC retention time (measure of peptide hydrophobicity); type: physicochemical; details: chromatographic, Waters C8 symmetry hydrophobic column, as described in ref 34; used as indicator of peptide hydrophobicity
Excerpt: In the membrane-bound LL-37 structure determined by 3D NMR spectroscopy, a hydrophobic gap exists (Figure 1A). The location of a hydrophilic S9 on the hydrophobic surface of LL-37 splits the long helix into two hydrophobic domains (gold sticks). The SK-24 peptide we identified here corresponds to the long hydrophobic domain [26]. The amino acid sequence of SK-24, along with LL-37 and its derived antimicrobial peptides, is depicted in Figure 1B. Peptide parameters, including net charge, hydrophobic content, Boman index, GRAVY, hydrophobicity, and hydrophobic moment of each peptide, were calculated using online tools, such as the APD [8] and HeliQuest (Table 1). Except for the shortest RI-10 (net charge +3), LL-37 and its other derived peptides have net charges +5 or +6, above the average net charge (+3.3) of natural antimicrobial peptides registered in the APD [8, 35, 36]. Overall, the hydrophobic percentages (Pho) of these peptides calculated in the APD are proportional to the hydrophobicity and hydrophobic moment calculated by HeliQuest in Table 1. Of note, LL-37 has the highest net charge (+6) and Boman index but the lowest Pho%, GRAVY, and hydrophobic moment.
All peptides were chemically synthesized and purified to >95% (Genemed Synthesis, San Antonio, TX, USA). The quality of each peptide was determined based on mass spectrometry (MS) and high-performance liquid chromatography (HPLC). Peptide stock solutions were freshly made by solubilizing in autoclaved distilled water, and their concentrations were quantitated using UV spectroscopy based on the absorbance difference at 215 and 225 nm as described. Peptide retention time was measured on a Waters C8 symmetry hydrophobic column as described. Other chemicals were purchased from Sigma (St. Louis, MO, USA) unless specified.

MIC (E. faecium V284-17): 2 µM (≈ 4.51 µg/mL)
MIC (A. baumannii B28-16): 4 to 8 µM
MIC (P. aeruginosa E411-17): 8 µM (≈ 18 µg/mL)
tHPLC (HPLC retention time) [4]: 10.753 min
Structure (SMILES): CC(C)C[C@H](NC(=O)[C@H](CC(N)=O)NC(=O)[C@H](CCCNC(=N)N)NC(=O)[C@@H](CC(C)C)NC(=O)[C@H](Cc1ccc(-c2ccccc2)cc1)NC(=O)[C@H](CC(=O)O)NC(=O)[C@H](CCCCN)NC(=O)[C@@H](CC(C)C)NC(=O)[C@H](CCCNC(=N)N)NC(=O)[C@H](CCC(N)=O)NC(=O)[C@@H](NC(=O)[C@@H](CC(C)C)NC(=O)[C@H](CCCNC(=N)N)NC(=O)[C@H](CCCCN)NC(=O)[C@H](Cc1ccc(-c2ccccc2)cc1)NC(=O)CN)C(C)C)C(=O)N[C@H](C(N)=O)C(C)C [Peptide 17BIPHE2] (H-G[Bip]KR[dL]VQR[dL]KD[Bip][dL]RNLV-NH2; N-terminus assumed)
Biofilm disruption ([1]; 72 h preformed biofilms, peptide 64 μM, highest concentration tested): ~ 70%
Disruption of 48 h biofilms ([1]; biofilms established for 48 h, 24 h treatment): dose-dependent biofilm disruption
Reduction of 24 h biofilms ([1]; biofilms established in 24 h, 24 h treatment): dose-dependent manner
Membrane permeation (S. aureus USA300 LAC [2]): more powerful
Membrane depolarization ability (order, words) (S. aureus USA300 LAC [3]): GI-20 > 17BIPHE2 > GF-17~SK-24 > LL-37
